Laboratory results reported in US9981945B2, “Pyrimidine derivatives as CFTR modulators” (NuBridge BioSciences, priority 2015, dated 2018).
Counter-ions that a name gives are not always drawn.

Each compound was assayed against T1, ΔF508 mutant CFTR (Homo sapiens, UniProt P13569, DEL508-508) (assay: Fluorescence (YFP halide quenching) assay of ΔF508 mutant CFTR activity in FRT cells). Conditions: FRT cells expressing ΔF508-CFTR and YFP-H148Q/I152L, rescued at 27° C. 20-24 h; forskolin 20 μM + test compound 20 μM for 20 min; I− influx rate normalized to forskolin alone.
T1 construct: expressed in transfected cells; host or cells: Fischer rat thyroid (FRT) cells
T1 sequence (P13569 with tags, fused parts or gaps DEL508-508): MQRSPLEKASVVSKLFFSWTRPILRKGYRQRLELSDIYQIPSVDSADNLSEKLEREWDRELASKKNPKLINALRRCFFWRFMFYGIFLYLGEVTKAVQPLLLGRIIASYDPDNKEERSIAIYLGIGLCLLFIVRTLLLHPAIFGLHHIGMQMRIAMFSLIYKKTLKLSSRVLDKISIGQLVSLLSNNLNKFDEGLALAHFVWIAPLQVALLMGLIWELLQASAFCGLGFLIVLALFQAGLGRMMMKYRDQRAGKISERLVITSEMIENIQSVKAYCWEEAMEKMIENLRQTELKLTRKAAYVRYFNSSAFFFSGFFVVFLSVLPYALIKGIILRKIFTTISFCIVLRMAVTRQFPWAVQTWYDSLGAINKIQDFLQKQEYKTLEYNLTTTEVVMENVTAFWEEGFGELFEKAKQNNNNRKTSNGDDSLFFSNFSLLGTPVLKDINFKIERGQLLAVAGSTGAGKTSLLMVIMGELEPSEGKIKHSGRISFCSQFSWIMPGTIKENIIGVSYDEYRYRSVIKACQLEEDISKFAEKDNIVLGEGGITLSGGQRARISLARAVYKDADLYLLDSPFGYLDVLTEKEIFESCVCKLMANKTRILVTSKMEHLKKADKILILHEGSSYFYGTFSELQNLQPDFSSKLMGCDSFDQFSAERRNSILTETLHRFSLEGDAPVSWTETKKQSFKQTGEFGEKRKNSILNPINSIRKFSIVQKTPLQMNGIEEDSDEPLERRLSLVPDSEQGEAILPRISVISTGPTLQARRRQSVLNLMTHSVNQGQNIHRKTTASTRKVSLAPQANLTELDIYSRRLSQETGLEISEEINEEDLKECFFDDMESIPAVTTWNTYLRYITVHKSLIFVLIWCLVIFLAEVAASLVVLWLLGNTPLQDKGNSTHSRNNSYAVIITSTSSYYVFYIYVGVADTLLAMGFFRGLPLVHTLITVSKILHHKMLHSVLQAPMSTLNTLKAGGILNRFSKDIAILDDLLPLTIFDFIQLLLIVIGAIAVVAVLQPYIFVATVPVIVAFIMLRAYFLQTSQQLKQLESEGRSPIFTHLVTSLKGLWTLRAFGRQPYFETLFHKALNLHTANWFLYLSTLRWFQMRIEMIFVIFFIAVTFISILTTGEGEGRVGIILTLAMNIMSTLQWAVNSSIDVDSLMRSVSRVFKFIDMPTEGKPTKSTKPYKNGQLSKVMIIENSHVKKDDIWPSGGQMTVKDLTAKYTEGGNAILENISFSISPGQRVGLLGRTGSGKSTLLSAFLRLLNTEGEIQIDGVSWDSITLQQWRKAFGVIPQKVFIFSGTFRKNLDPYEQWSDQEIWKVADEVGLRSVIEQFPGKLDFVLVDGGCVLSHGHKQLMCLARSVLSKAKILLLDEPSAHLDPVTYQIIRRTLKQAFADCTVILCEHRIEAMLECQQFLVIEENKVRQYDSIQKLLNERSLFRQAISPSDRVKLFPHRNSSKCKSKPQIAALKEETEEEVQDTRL
Type: cell-based
Parameters: key: fold of mean activity with forskolin alone (I− quenching rate)
Description: The ΔF508 mutant CFTR activities of the CFTR modulators are detected using the Fluorescence Assay developed by Pedemonte (Pedemonte N., et al., Antihypertensive 1,4-dihydropyridines as correctors of the cystic fibrosis transmembrane conductance regulator channel gating defect caused by cystic fibrosis mutations, Mol. Pharmacol., 2005, 68, 1736-1746).
Fischer rat thyroid (FRT) cells, stably transfected with ΔF508 were retransfected with the YFP-H148Q/I152L fluorescent protein. The cells were plated (100,000 cells/well) on black 96-well microplates with clear plastic bottom (Corning Life Sciences, Acton, Mass.).
The 96-well microplates containing FRT cells expressing F508-CFTR and the halide-sensitive YFP were incubated at 27° C. for 20 to 24 h to allow rescue of the mutant protein to the plasma membrane. After incubation, cells were washed with PBS (containing 137 mM NaCl, 2.7 mM KCl, 8.1 mM Na2HPO4, 1.5 mM KH2PO4, 1 mM CaCl2, and 0.5 mM MgCl2) and stimulated for 20 min with forskolin (20 μM) and test compounds (20 μM) in a final volume of 60 μl. Microplates were then transferred to a microplate reader for CFTR activity determination. Each assay consisted of a continuous 14-s fluorescence reading (5 points per second) with 2 s before and 12 s after injection of 165 μl of an iodide-containing solution (PBS with Cl^− replaced by I^−). Final iodide concentration in the wells was 100 mM. […] To determine I^− influx rate, the final 11 s of the data for each well were fitted with an exponential function to extrapolate initial slope. CFTR activity was determined by measuring the rate of fluorescence quenching induced by extracellular addition of I^−. Data are normalized to the mean activity measured in the presence of forskolin alone.

First: Cl.O=C(Nc1cncnc1OCC1CCNCC1)c1ccc(F)c(-c2c(F)cccc2F)n1 [Example 1, 6-(2,6-difluorophenyl)-5-fluoro-N-(4-(piperidin-4-ylmethoxy)pyrimidin-5-yl)picolinamide hydrochloride]
Second: Cl.O=C(Nc1cncnc1OCC1CCNC1)c1ccc(F)c(-c2c(F)cccc2F)n1 (centres unmarked) [Example 8, 6-(2,6-difluorophenyl)-5-fluoro-N-(4-(pyrrolidin-3-ylmethoxy)pyrimidin-5-yl)picolinamide hydrochloride]
The “CFTR Activity” value of the first is higher: 1.2 for the first, 0.6 for the second.

`Cl.O=C(Nc1cncnc1OCC1CNC1)c1ccc(F)c(-c2c(F)cccc2F)n1` [Example 2, N-(4-(azetidin-3-ylmethoxy)pyrimidin-5-yl)-6-(2,6-difluorophenyl)-5-fluoropicolinamide hydrochloride] and `Cl.O=C(Nc1cncnc1OCC1CCCNC1)c1ccc(F)c(-c2c(F)cccc2F)n1` (centres unmarked) [Example 7, 6-(2,6-difluorophenyl)-5-fluoro-N-(4-(piperidin-3-ylmethoxy)pyrimidin-5-yl)picolinamide hydrochloride] are the same in “CFTR Activity” value: 0.5 for the first, 0.5 for the second.

First: Cl.O=C(Nc1cncnc1OC1CCNCC1)c1ccc(F)c(-c2c(F)cccc2F)n1 [Example 3, 6-(2,6-difluorophenyl)-5-fluoro-N-(4-(piperidin-4-yloxy)pyrimidin-5-yl)picolinamide hydrochloride]
Second: Cl.O=C(Nc1cncnc1OC1CCCNCC1)c1ccc(F)c(-c2c(F)cccc2F)n1 (centres unmarked) [Example 6, N-(4-(azepan-4-yloxy)pyrimidin-5-yl)-6-(2,6-difluorophenyl)-5-fluoropicolinamide hydrochloride]
The “CFTR Activity” value of the first is lower: 1.3 for the first, 1.9 for the second.

Going from `Cl.O=C(Nc1cncnc1OC1CCNC1)c1ccc(F)c(-c2c(F)cccc2F)n1` (centres unmarked) [Example 4, 6-(2,6-difluorophenyl)-5-fluoro-N-(4-(pyrrolidin-3-yloxy)pyrimidin-5-yl)picolinamide hydrochloride] to `Cl.O=C(Nc1cncnc1OC1CCCNC1)c1ccc(F)c(-c2c(F)cccc2F)n1` (centres unmarked) [Example 5, 6-(2,6-difluorophenyl)-5-fluoro-N-(4-(piperidin-3-yloxy)pyrimidin-5-yl)picolinamide hydrochloride], the “CFTR Activity” value falls from 0.7 to 0.6.

First: Cl.O=C(Nc1cncnc1OC1CNC1)c1ccc(F)c(-c2c(F)cccc2F)n1 [Example 9, N-(4-(azetidin-3-yloxy)pyrimidin-5-yl)-6-(2,6-difluorophenyl)-5-fluoropicolinamide hydrochloride]
Second: Cl.Nc1cc(F)c(-c2c(F)cccc2F)nc1C(=O)Nc1cncnc1OC1CNC1 [Example 31, 3-amino-N-(4-(azetidin-3-yloxy)pyrimidin-5-yl)-6-(2,6-difluorophenyl)-5-fluoropicolinamide hydrochloride]
The “CFTR Activity” value of the first is lower: 0.4 for the first, 1.0 for the second.

Compared with `Cl.NC1CCC(Oc2ncncc2NC(=O)c2ccc(F)c(-c3c(F)cccc3F)n2)CC1` (centres unmarked) [Example 10, N-(4-(((1r,4r)-4-aminocyclohexyl)oxy)pyrimidin-5-yl)-6-(2,6-difluorophenyl)-5-fluoropicolinamide hydrochloride], `Cl.NC1CCCC(Oc2ncncc2NC(=O)c2ccc(F)c(-c3c(F)cccc3F)n2)C1` (centres unmarked) [Example 11, N-(4-((3-aminocyclohexyl)oxy)pyrimidin-5-yl)-6-(2,6-difluorophenyl)-5-fluoropicolinamide hydrochloride] is higher in “CFTR Activity” value: 1.9 for the first, 3.0 for the second.

First: Cl.NCCCOc1ncncc1NC(=O)c1ccc(F)c(-c2c(F)cccc2F)n1 [Example 12, N-(4-(3-aminopropoxy)pyrimidin-5-yl)-6-(2,6-difluorophenyl)-5-fluoropicolinamide hydrochloride]
Second: Cl.NCCCCOc1ncncc1NC(=O)c1ccc(F)c(-c2c(F)cccc2F)n1 [Example 15, N-(4-(4-aminobutoxy)pyrimidin-5-yl)-6-(2,6-difluorophenyl)-5-fluoropicolinamide hydrochloride]
The “CFTR Activity” value of the first is higher: 0.7 for the first, 0.5 for the second.

`CNCCCOc1ncncc1NC(=O)c1ccc(F)c(-c2c(F)cccc2F)n1.Cl` [Example 13, 6-(2,6-difluorophenyl)-5-fluoro-N-(4-(3-(methylamino)propoxy)pyrimidin-5-yl)picolinamide hydrochloride] and `CNCCCCOc1ncncc1NC(=O)c1ccc(F)c(-c2c(F)cccc2F)n1.Cl` [Example 16, 6-(2,6-difluorophenyl)-5-fluoro-N-(4-(4-(methylamino)butoxy)pyrimidin-5-yl)picolinamide hydrochloride] are the same in “CFTR Activity” value: 0.5 for the first, 0.5 for the second.

`CN(C)CCCOc1ncncc1NC(=O)c1ccc(F)c(-c2c(F)cccc2F)n1.Cl` [Example 14, 6-(2,6-difluorophenyl)-N-(4-(3-(dimethylamino)propoxy)pyrimidin-5-yl)-5-fluoropicolinamide hydrochloride] and `O=C(Nc1cncnc1OCCCO)c1ccc(F)c(-c2c(F)cccc2F)n1` [Example 17, 6-(2,6-difluorophenyl)-5-fluoro-N-(4-(3-hydroxypropoxy)pyrimidin-5-yl)picolinamide] are the same in “CFTR Activity” value: 0.2 for the first, 0.2 for the second.

Going from `CC(O)CCOc1ncncc1NC(=O)c1ccc(F)c(-c2c(F)cccc2F)n1` (centres unmarked) [Example 18, 6-(2,6-difluorophenyl)-5-fluoro-N-(4-(3-hydroxybutoxy)pyrimidin-5-yl)picolinamide] to `O=C(Nc1cncnc1OCCC(O)CO)c1ccc(F)c(-c2c(F)cccc2F)n1` (centres unmarked) [Example 21, 6-(2,6-difluorophenyl)-N-(4-(3,4-dihydroxybutoxy)pyrimidin-5-yl)-5-fluoropicolinamide], the “CFTR Activity” value falls from 0.2 to 0.05.

Compared with `O=C(Nc1cncnc1OCCCCO)c1ccc(F)c(-c2c(F)cccc2F)n1` [Example 19, 6-(2,6-difluorophenyl)-5-fluoro-N-(4-(4-hydroxybutoxy)pyrimidin-5-yl)picolinamide], `CC(C)(O)CCCOc1ncncc1NC(=O)c1ccc(F)c(-c2c(F)cccc2F)n1` [Example 20, 6-(2,6-difluorophenyl)-5-fluoro-N-(4-((4-hydroxy-4-methylpentyl)oxy)pyrimidin-5-yl)picolinamide] is lower in “CFTR Activity” value: 0.3 for the first, 0.1 for the second.

Going from `O=C(Nc1cncnc1OCC1CCOCC1)c1ccc(F)c(-c2c(F)cccc2F)n1` [Example 22, 6-(2,6-difluorophenyl)-5-fluoro-N-(4-((tetrahydro-2H-pyran-4-yl)methoxy)pyrimidin-5-yl)picolinamide] to `Cl.NCC(CCl)COc1ncncc1NC(=O)c1ccc(F)c(-c2c(F)cccc2F)n1` (centres unmarked) [Example 30, N-(4-(3-amino-2-(chloromethyl)propoxy)pyrimidin-5-yl)-6-(2,6-difluorophenyl)-5-fluoropicolinamide hydrochloride], the “CFTR Activity” value rises from 0.1 to 1.5.

First: Cl.Nc1cc(F)c(-c2c(F)cccc2F)nc1C(=O)Nc1cncnc1OCC1CCNCC1 [Example 23, 3-amino-6-(2,6-difluorophenyl)-5-fluoro-N-(4-(piperidin-4-ylmethoxy)pyrimidin-5-yl)picolinamide hydrochloride]
Second: Cl.Nc1cc(F)c(-c2c(F)cccc2F)nc1C(=O)Nc1cncnc1OCC1CCNC1 (centres unmarked) [Example 28]
The “CFTR Activity” value of the first is lower: 2.2 for the first, 2.3 for the second.

Compared with `Cl.Nc1cc(F)c(-c2c(F)cccc2F)nc1C(=O)Nc1cncnc1OC1CCNC1` (centres unmarked) [Example 24, 3-amino-6-(2,6-difluorophenyl)-5-fluoro-N-(4-(pyrrolidin-3-yloxy)pyrimidin-5-yl)picolinamide hydrochloride], `Cl.Nc1cc(F)c(-c2c(F)cccc2F)nc1C(=O)Nc1cncnc1OC1CCNCC1` [Example 25, 3-amino-6-(2,6-difluorophenyl)-5-fluoro-N-(4-(piperidin-4-yloxy)pyrimidin-5-yl)picolinamide hydrochloride] is higher in “CFTR Activity” value: 1.9 for the first, 3.1 for the second.

Going from `Cl.Nc1cc(F)c(-c2c(F)cccc2F)nc1C(=O)Nc1cncnc1OC1CCCNCC1` (centres unmarked) [Example 26, 3-amino-N-(4-(azepan-4-yloxy)pyrimidin-5-yl)-6-(2,6-difluorophenyl)-5-fluoropicolinamide hydrochloride] to `Cl.Nc1cc(F)c(-c2c(F)cccc2F)nc1C(=O)Nc1cncnc1OC1CCC(N)CC1` (centres unmarked) [Example 27, 3-amino-N-(4-(((1r,4r)-4-aminocyclohexyl)oxy)pyrimidin-5-yl)-6-(2,6-difluorophenyl)-5-fluoropicolinamide hydrochloride], the “CFTR Activity” value rises from 4.0 to 4.4.

First: NCC(CCl)Oc1ncncc1NC(=O)c1ccc(F)c(-c2c(F)cccc2F)n1 (centres unmarked) [Example 29, N-(4-((1-amino-3-chloropropan-2-yl)oxy)pyrimidin-5-yl)-6-(2,6-difluorophenyl)-5-fluoropicolinamide hydrochloride]
Second: Cl.Nc1cc(F)c(-c2c(F)cccc2F)nc1C(=O)Nc1cncnc1OCC1CNC1 [Example 32, 3-amino-N-(4-(azetidin-3-ylmethoxy)pyrimidin-5-yl)-6-(2,6-difluorophenyl)-5-fluoropicolinamide hydrochloride]
The “CFTR Activity” value of the first is higher: 1.8 for the first, 1.0 for the second.
